According to US20230000997A1, “PROCESSES OF PREPARING POLYGLUTAMATED ANTIFOLATES AND USES OF THEIR COMPOSITIONS” (L.E.A.F. HOLDINGS GROUP LLC, priority 2019, published 2023):

Experiment: Applicant's experiments with FITC on liposomes (immunostimulant / detectable marker)
Conditions: reagent attached to liposome exterior

Substance: fluorescein isothiocyanate [FITC]
- function as immunostimulant and detectable marker: serves as both an immunostimulant and a detectable marker
